The target in assay [1] is cAMP-dependent protein kinase catalytic subunit alpha (Bos taurus, UniProt P00517). Description: Kinase Inhibition Assay. The note with it: 25 °C. As to the method: (§1) In vitro kinase assay using purified enzyme, was incubated at room temperature with substrate, and test compounds in the presence of ATP/[gamma-33P]ATP. 33P incorporation was measured with a Top Count (Packard). IC50 is the inhibitor concentration which inhibits 50% of kinase activity that catalyzes the transfer of the terminal phosphate from 33P labeled ATP to the substrate.

The target in assay [2] is Calcium/calmodulin-dependent protein kinase type II subunit alpha (Rattus norvegicus, UniProt P11275). In words: Kinase Inhibition Assay. The note with it: 25 °C. As to the method:
as §1

We go through twelve molecules from BindingDB's records for doi:10.1021/jm0256169 (Eli Lilly, 2003).

Chain of Calcium/calmodulin-dependent protein kinase type II subunit alpha (P11275 whole entry): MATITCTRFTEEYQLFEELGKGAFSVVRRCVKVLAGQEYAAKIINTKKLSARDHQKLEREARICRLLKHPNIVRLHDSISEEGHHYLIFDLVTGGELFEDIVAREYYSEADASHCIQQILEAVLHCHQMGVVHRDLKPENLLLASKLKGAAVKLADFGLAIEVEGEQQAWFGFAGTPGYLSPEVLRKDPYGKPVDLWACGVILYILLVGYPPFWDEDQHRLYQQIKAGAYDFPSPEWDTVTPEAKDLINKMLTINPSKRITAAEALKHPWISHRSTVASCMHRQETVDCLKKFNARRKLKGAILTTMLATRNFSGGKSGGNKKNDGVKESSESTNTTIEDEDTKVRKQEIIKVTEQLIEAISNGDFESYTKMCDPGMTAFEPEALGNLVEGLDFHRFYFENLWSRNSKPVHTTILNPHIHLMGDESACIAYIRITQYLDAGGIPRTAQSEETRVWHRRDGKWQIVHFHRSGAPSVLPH

In general, IC50 refers to the concentration at which inhibition is half-maximal. The molecule `O=C1NC(=O)c2c1c1c3ccccc3[nH]c1c1[nH]c3c(Br)cccc3c21` [5-bromo-3,13,23-triazahexacyclo[14.7.0.0^{2,10}.0^{4,9}.0^{11,15}.0^{17,22}]tricosa-1(16),2(10),4(9),5,7,11(15),17(22),18,20-nonaene-12,14-dione] came in with an IC50 in assay [1] of over 20 µM.

`COc1ccc2c(c1)[nH]c1c3[nH]c4ccccc4c3c3c(c21)C(=O)NC3=O` [6-methoxy-3,13,23-triazahexacyclo[14.7.0.0^{2,10}.0^{4,9}.0^{11,15}.0^{17,22}]tricosa-1(16),2(10),4(9),5,7,11(15),17(22),18,20-nonaene-12,14-dione] yielded a half-inhibitory concentration (IC50) in assay [1] of over 2 µM.

On to `COc1ccc2c(c1)[nH]c1c3[nH]c4cc(Br)ccc4c3c3c(c21)C(=O)NC3=O` [6-bromo-20-methoxy-3,13,23-triazahexacyclo[14.7.0.0^{2,10}.0^{4,9}.0^{11,15}.0^{17,22}]tricosa-1(16),2(10),4(9),5,7,11(15),17(22),18,20-nonaene-12,14-dione], for which the IC50 in assay [2] and in assay [1] was over 2 µM each time.

For the molecule `Cn1c2ccccc2c2c3c(c4c5ccc(F)cc5[nH]c4c21)C(=O)NC3=O` [indolocarbazole deriv. 4(h)], the 50% inhibitory concentration (IC50) in assay [2] and in assay [1] was over 2 µM throughout.

With `O=C1NC(=O)c2c1c1c3ccccc3[nH]c1c1[nH]c3cc(Cl)ccc3c21` [6-chloro-3,13,23-triazahexacyclo[14.7.0.0^{2,10}.0^{4,9}.0^{11,15}.0^{17,22}]tricosa-1(16),2(10),4(9),5,7,11(15),17(22),18,20-nonaene-12,14-dione], the IC50 in assay [1] is over 2 µM.

In general, EC50 refers to the midpoint of the concentration-response curve. On to `O=C1NC(=O)c2c1c1c3ccccc3[nH]c1c1[nH]c3ccc(Br)cc3c21` [7-bromo-3,13,23-triazahexacyclo[14.7.0.0^{2,10}.0^{4,9}.0^{11,15}.0^{17,22}]tricosa-1(16),2(10),4(9),5,7,11(15),17(22),18,20-nonaene-12,14-dione], for which, in assay [2], the EC50 turned out to be 0.07 µM and the half-inhibitory concentration (IC50) is under 1.25 µM. In assay [1], this molecule registered an IC50 of over 20 µM.

Take `Cc1ccc2c(c1)[nH]c1c3[nH]c4ccccc4c3c3c(c21)C(=O)NC3=O` [6-methyl-3,13,23-triazahexacyclo[14.7.0.0^{2,10}.0^{4,9}.0^{11,15}.0^{17,22}]tricosa-1(16),2(10),4(9),5,7,11(15),17(22),18,20-nonaene-12,14-dione]: in assay [1], the IC50 was over 2 µM.

For `O=C1NC(=O)c2c1c1c3ccccc3[nH]c1c1[nH]c3cc(Br)ccc3c21` [6-bromo-3,13,23-triazahexacyclo[14.7.0.0^{2,10}.0^{4,9}.0^{11,15}.0^{17,22}]tricosa-1(16),2(10),4(9),5,7,11(15),17(22),18,20-nonaene-12,14-dione], the EC50 in assay [2] worked out at 0.07 µM. The molecule further yielded an IC50 in assay [1] of over 20 µM.

For `O=C1NC(=O)c2c1c1c3ccccc3[nH]c1c1[nH]c3cc(F)ccc3c21` [6-fluoro-3,13,23-triazahexacyclo[14.7.0.0^{2,10}.0^{4,9}.0^{11,15}.0^{17,22}]tricosa-1(16),2(10),4(9),5,7,11(15),17(22),18,20-nonaene-12,14-dione], the EC50 in assay [2] came out at 0.04 µM. The molecule further came in with an IC50 in assay [1] of over 2 µM.

Regarding `Cn1c2ccccc2c2c3c(c4c5ccc(Br)cc5[nH]c4c21)C(=O)NC3=O` [indolocarbazole deriv. 4(f)], the EC50 in assay [2] turned out to be 0.08 µM. The same molecule displayed an IC50 in assay [1] of over 2 µM.

The molecule `O=C1NC(=O)c2c1c1c3ccccc3[nH]c1c1[nH]c3ccccc3c21` [6,7,12,13-Tetrahydro-5,7-dioxo-5H-indolo[2,3-a]pyrrolo[3,4-c]carbazole] yielded an IC50 in assay [1] of over 2 µM.

As to `O=C1NC(=O)c2c1c1c3ccccc3[nH]c1c1[nH]c3cc(C(F)(F)F)ccc3c21` [6-(trifluoromethyl)-3,13,23-triazahexacyclo[14.7.0.0^{2,10}.0^{4,9}.0^{11,15}.0^{17,22}]tricosa-1(16),2(10),4(9),5,7,11(15),17(22),18,20-nonaene-12,14-dione], the IC50 in assay [2] and in assay [1] was over 2 µM each time.
